Measured values reported in PMC6423038, “Deferiprone: Pan-selective Histone Lysine Demethylase Inhibition Activity and Structure Activity Relationship Study” (Scientific Reports, 2019).

What was measured:
MCF-7 = test: Cell viability assay (MTS), antiproliferative activity; format: cell-based; details: Homo sapiens, MCF7, 72 h, Table 4
Procedure: (§1) To preliminarily profile the bioactivity of these compounds, we adopted a streamlined approach which involved screening against KDM6A at two concentrations and evaluating antiproliferative activity against three representative cell lines – MCF-7 (ER(+) BCa), MDA-MB-231 (TNBC BCa) and Vero (a non-transformed cell line as control).
(§2) The In vitro proliferation assay was performed as reported previously[15],[16]. Detailed description of the protocol used is included in the Supplementary Information.
(§3) Cell Viability Assay. All cell lines were purchased form ATCC (Manassas, VA), and they were routinely cultured in different media recommended by the supplier. MCF-7 cells were cultured in non-phenol red DMEM (Corning, Manassas, VA) fortified with 10% charcoal treated fetal bovine serum (FBS; Atlanta Biologicals, GA) and 0.2 mM glutamine (Corning, Manassas, VA), whereas MDA-MB-231, DU-145, and Vero were cultured in DMEM with 10% FBS. […] After 24 h incubation in 37 °C under 5% CO2, cells were treated with serially diluted ligands with final DMSO concentration of 1% and incubated for additional 72 h. MTS (CellTiter 96 Aqueous One Solution Cell Proliferation Assays, Promega, Madison, WI) was added to each well 2.5 h prior to recording the absorbance at 490 nm.

VERO = test: as above; format: cell-based; details: Chlorocebus sabaeus, 72 h, Table 4
Procedure: as §1, §2, §3

MDA-MB-231 = test: as above; format: cell-based; details: Homo sapiens, 72 h, Table 4
Procedure: as §1, §2, §3

KDM5A (Jarid1A) = KDM5A (Jarid1A) (Homo sapiens, UniProt P29375); test: KDM cell-free assay (AlphaScreen, BPS Bioscience)
KDM5A (Jarid1A), sequence (P29375 whole entry): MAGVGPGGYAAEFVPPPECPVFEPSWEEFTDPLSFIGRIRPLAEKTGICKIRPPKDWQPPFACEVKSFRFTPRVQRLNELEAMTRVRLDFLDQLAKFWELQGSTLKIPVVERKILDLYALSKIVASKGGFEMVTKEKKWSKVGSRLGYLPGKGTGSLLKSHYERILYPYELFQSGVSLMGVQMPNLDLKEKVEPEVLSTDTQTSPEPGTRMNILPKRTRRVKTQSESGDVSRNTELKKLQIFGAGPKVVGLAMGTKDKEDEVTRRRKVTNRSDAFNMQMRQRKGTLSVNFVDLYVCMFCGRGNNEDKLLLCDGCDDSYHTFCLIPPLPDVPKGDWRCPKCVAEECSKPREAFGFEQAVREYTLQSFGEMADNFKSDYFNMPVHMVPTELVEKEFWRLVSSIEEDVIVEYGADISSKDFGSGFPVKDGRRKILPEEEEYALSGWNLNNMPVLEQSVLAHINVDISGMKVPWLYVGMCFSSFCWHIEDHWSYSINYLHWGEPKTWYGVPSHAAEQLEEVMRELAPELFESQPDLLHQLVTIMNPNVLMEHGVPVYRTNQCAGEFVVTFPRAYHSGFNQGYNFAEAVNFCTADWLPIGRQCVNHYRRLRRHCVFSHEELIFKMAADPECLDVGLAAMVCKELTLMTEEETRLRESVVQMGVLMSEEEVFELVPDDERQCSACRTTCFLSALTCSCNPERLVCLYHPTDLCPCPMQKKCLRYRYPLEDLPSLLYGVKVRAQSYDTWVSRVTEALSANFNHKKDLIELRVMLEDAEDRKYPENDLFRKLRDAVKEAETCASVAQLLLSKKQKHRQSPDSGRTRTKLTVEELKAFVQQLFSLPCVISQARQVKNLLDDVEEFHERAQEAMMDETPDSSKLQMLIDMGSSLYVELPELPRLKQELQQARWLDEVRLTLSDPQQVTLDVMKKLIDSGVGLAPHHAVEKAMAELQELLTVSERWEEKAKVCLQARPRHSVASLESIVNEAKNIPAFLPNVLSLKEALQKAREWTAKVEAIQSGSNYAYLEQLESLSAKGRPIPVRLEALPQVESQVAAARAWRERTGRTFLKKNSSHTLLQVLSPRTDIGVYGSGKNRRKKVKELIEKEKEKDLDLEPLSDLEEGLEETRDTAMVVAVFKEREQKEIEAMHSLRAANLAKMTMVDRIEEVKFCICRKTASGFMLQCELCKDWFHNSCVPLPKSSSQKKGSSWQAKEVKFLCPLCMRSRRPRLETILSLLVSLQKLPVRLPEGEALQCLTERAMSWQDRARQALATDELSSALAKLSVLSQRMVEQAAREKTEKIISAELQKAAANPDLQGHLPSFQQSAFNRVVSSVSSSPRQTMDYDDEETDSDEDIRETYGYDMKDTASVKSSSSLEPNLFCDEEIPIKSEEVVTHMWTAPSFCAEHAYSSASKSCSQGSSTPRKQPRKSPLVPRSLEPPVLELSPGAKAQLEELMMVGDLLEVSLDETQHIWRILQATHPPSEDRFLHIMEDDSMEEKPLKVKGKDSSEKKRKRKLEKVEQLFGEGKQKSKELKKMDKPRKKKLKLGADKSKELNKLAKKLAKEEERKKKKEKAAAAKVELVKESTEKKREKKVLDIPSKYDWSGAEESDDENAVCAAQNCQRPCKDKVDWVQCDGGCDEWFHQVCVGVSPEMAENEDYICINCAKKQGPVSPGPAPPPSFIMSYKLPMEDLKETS

KDM4B (JMJD2B) = KDM4B (JMJD2B) (Homo sapiens, UniProt O94953); test: KDM cell-free assay (AlphaScreen, BPS Bioscience)
KDM4B (JMJD2B), sequence (O94953 whole entry): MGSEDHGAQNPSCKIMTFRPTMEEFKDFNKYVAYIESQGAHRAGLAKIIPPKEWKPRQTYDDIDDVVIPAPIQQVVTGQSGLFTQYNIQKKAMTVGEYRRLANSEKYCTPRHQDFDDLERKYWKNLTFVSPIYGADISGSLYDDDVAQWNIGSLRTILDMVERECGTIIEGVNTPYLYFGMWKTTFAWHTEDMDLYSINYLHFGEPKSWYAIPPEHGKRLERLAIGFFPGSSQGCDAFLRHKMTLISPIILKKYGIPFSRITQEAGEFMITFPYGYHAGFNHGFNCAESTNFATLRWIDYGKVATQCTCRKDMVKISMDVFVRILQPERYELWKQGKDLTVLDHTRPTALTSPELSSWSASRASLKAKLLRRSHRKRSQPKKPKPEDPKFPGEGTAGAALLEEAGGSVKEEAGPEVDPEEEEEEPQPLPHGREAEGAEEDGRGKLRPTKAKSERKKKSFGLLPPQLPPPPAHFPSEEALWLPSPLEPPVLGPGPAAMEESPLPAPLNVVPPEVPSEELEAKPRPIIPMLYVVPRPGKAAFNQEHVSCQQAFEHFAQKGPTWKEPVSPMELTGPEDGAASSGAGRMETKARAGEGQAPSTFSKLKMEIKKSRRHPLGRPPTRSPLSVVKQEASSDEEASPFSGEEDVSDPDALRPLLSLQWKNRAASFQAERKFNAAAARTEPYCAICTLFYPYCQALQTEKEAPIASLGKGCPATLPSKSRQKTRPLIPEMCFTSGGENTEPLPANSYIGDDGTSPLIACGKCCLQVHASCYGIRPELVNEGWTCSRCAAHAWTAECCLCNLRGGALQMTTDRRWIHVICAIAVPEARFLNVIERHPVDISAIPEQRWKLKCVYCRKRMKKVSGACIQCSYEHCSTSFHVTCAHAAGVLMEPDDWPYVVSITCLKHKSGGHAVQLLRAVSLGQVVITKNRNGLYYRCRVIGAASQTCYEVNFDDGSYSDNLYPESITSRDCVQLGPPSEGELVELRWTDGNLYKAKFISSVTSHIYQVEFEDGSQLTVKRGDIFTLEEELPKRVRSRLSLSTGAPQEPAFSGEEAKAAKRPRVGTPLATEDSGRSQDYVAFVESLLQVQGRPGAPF

KDM4D (JMJD2D) = KDM4D (JMJD2D) (Homo sapiens, UniProt Q6B0I6); test: KDM cell-free assay (AlphaScreen, BPS Bioscience)
KDM4D (JMJD2D), sequence (Q6B0I6 whole entry): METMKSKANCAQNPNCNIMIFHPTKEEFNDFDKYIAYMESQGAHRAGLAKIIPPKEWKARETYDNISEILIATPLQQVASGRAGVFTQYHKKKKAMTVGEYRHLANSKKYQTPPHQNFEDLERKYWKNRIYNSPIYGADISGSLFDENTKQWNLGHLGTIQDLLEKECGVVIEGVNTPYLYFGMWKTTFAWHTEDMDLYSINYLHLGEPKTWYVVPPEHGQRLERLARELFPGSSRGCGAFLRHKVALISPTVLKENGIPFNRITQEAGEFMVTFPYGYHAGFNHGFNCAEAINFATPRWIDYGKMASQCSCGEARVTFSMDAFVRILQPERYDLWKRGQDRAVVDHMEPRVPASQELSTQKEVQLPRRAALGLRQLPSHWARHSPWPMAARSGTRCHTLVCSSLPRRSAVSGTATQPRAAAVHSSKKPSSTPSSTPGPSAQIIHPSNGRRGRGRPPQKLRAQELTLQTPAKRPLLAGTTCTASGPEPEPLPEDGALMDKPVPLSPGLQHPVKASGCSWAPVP

## Cc1c(O)c(=O)ccn1C [DFP, Deferiprone]
MCF-7
  IC50: 134 µM
VERO
  IC50: 85.9 µM
MDA-MB-231
  IC50: 112 µM
KDM5A (Jarid1A)
  IC50: > 25 µM
KDM4B (JMJD2B)
  IC50: > 25 µM
KDM4D (JMJD2D)
  IC50: > 25 µM
